The target of this assay is T1, human Glycogen Synthase Kinase-3 beta (hGSK-3β) (Homo sapiens, UniProt P49841).
T1 construct: purchased Upstate cell signaling solutions
The assay can be described thus: Biochemical hGSK-3Beta assay (33P incorporation into biotinylated peptide substrate). To be noted: 10 μM ATP, 30 minutes at room temperature; read-out: GSK-3β IC50. As to the method:
Methods—Biochemical hGSK-3Beta Assay
Compounds were tested for their ability to inhibit human Glycogen Synthase Kinase-3 beta (hGSK-3β) to phosphorylate biotin-[…](pS)EDEEE. Compounds were incubated with 0.5 μCi 33P-ATP, 10 μM ATP, 0.0125 U hGSK-3β (Upstate cell signaling solutions) and 1 μM substrate (biotin-[…](pS)EDEEE) in 50 mM HEPES, 10 mM MgCl2, […], 1 mM DTT, 0.0075% Triton, 2% DMSO (total volume 50 μL) for 30 minutes at room temperature. The incubation was stopped by addition of an equal volume of 100 mM EDTA, 4M NaCl. 80 μL of this mixture was added to streptavidin-coated Flash -plates (Perkin Elmer). Following a wash step, 33P incorporation was quantified on a MicroBeta microplate liquid scintillation counter (PerkinElmer). IC50s were determined by fitting a sigmoidal dose-response curve to the counts obtained at the different concentrations in GraphPad Prism.

Among the data in patent US9540370B2, “Heterocyclic compounds and their use as glycogen synthase kinase-3 inhibitors” (ABBVIE DEUTSCHLAND GMBH & CO. KG, priority 2010, dated 2017) are IC50 values, retold here.

T1 sequence (P49841 whole entry): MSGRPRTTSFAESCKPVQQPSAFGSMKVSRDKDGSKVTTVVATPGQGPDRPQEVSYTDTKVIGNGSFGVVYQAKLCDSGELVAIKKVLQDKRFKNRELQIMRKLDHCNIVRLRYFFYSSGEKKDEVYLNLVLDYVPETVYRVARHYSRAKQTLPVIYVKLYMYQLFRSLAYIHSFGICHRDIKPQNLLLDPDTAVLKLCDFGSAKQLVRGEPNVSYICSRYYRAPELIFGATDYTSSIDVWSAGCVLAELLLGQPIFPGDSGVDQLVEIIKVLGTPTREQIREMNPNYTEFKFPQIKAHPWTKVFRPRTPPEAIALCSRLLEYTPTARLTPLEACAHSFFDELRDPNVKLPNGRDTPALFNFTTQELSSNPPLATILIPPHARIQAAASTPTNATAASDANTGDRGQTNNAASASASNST

By IC50 is commonly meant the point on the concentration scale where inhibition reaches its midpoint. `O=C(Nc1cccc(C2=CCOCC2)n1)Nc1ccnc2c(F)cccc12` [Example 1, 1-(6-(3,6-Dihydro-2H-pyran-4-yl)pyridin-2-yl)-3-(8-fluoroquinolin-4-yl)urea]: the IC50 was less than 0.1 µM.
With `O=C(Nc1cccc(C2CCOCC2)n1)Nc1ccnc2c(F)cccc12` [Example 2, 1-(8-Fluoroquinolin-4-yl)-3-(6-(tetrahydro-2H-pyran-4-yl)pyridin-2-yl)urea], the IC50 is less than 0.1 µM.
Next, `O=C(Nc1cccc(C2=COCCC2)n1)Nc1ccnc2c(F)cccc12` [Example 3, 1-(6-(3,4-Dihydro-2H-pyran-5-yl)pyridin-2-yl)-3-(8-fluoroquinolin-4-yl)urea]: less than 0.1 µM.
For `O=C(Nc1cccc(C(F)(F)F)n1)Nc1ccnc2ccc(Br)cc12` [Example 16, 1-(6-Bromo-quinolin-4-yl)-3-(6-trifluoromethyl-pyridin-2-yl)-urea] the value was less than 0.1 µM.
As for `O=C(Nc1cccc(C(F)(F)F)n1)Nc1ccnc2ccccc12` [Example 17, 1-(6-(Trifluoromethyl)pyridin-2-yl)-3-quinolin-4-yl-urea], the IC50 was less than 0.1 µM.
For `O=C(Nc1cccc(C(F)(F)F)n1)Nc1ccnc2c(F)cc(F)cc12` [Example 18, 1-(6,8-Difluoroquinolin-4-yl)-3-(6-trifluoromethyl-pyridin-2-yl)-urea] the value was less than 0.1 µM.
Next, `O=C(Nc1cccc(C(F)(F)F)n1)Nc1ccnc2cc(Br)ccc12` [Example 19, 1-(7-Bromoquinolin-4-yl)-3-(6-trifluoromethyl-pyridin-2-yl)-urea]: less than 0.1 µM; `COc1ccc2c(NC(=O)Nc3cccc(C(F)(F)F)n3)ccnc2c1` [Example 21, 1-(7-Methoxyquinolin-4-yl)-3-(6-trifluoromethyl-pyridin-2-yl)-urea]: less than 0.1 µM; `N#Cc1cccc2c(NC(=O)Nc3cccc(C(F)(F)F)n3)ccnc12` [Example 23]: less than 0.1 µM.
For `O=C(Nc1cccc(C(F)(F)F)n1)Nc1ccnc2c(I)cccc12` [Example 24, 1-(8-Iodoquinolin-4-yl)-3-(6-trifluoromethyl-pyridin-2-yl)-urea] the value was less than 0.1 µM.
